Test results from ChEMBL document CHEMBL1201862, “PubChem BioAssay data set” (2004).
Activity calls are given as the source filed them.

Experiments:
[1] = target: T1, Carboxy-terminal domain RNA polymerase II polypeptide A small phosphatase 1 (Homo sapiens, UniProt Q9GZU7); assay: CTDSP1 inhibitors, concentration-response, biochemical, absorbance readout, ultra-high-throughput screen actives (AID 540297); format: functional
T1 sequence (Q9GZU7 whole entry): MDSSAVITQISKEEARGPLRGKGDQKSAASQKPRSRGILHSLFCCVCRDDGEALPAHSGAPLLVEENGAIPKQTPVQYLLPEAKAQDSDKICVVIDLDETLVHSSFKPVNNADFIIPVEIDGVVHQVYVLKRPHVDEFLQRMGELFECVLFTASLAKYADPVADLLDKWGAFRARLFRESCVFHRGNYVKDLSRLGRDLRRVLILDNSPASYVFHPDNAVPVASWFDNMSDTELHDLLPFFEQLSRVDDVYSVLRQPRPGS

[2] = target: T2, Tyrosine-protein phosphatase non-receptor type 22 (Homo sapiens, UniProt Q9Y2R2); assay: SAR LYP1 Fluorescent Assay using pCAP substrate for In Vitro dose response studies - Set 2. [Related pubchem assays (depositor defined):AID1779, AID1784, AID2135, AID449727]; format: functional
T2 sequence (Q9Y2R2 whole entry): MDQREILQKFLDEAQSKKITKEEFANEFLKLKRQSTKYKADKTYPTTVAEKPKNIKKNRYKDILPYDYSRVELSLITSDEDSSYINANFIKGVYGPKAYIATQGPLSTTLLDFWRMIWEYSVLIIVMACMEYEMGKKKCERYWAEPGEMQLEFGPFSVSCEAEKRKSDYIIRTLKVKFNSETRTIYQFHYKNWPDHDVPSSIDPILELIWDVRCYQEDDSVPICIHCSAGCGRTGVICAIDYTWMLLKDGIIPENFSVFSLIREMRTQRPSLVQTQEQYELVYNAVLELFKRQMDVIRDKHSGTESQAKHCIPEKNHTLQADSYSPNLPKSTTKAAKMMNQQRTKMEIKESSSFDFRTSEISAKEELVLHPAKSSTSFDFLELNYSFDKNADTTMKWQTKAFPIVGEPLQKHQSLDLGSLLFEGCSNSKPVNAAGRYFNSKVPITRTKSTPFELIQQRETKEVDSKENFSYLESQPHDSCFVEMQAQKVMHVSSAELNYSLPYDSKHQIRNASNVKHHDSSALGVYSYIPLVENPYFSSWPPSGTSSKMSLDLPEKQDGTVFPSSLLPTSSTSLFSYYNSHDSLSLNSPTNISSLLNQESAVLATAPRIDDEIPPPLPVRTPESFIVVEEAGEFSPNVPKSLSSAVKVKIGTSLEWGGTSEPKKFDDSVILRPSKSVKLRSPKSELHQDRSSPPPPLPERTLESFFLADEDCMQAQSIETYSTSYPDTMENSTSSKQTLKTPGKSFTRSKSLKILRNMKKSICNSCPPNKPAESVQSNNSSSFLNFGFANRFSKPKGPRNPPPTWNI

[3] = target: T2, Tyrosine-protein phosphatase non-receptor type 22; assay: inhibition of lymphoid tyrosine phosphatase LYP – biochemical, pCAP fluorogenic substrate, fluorescence, set 3, SAR follow-up (AID 449727); format: functional
[4] = target: T3, Tyrosine-protein phosphatase non-receptor type 7 (Homo sapiens, UniProt P35236); assay: inhibition of hematopoietic tyrosine phosphatase HePTP – biochemical, set 2, SAR follow-up (AID 449736); format: functional
T3 sequence (P35236 whole entry): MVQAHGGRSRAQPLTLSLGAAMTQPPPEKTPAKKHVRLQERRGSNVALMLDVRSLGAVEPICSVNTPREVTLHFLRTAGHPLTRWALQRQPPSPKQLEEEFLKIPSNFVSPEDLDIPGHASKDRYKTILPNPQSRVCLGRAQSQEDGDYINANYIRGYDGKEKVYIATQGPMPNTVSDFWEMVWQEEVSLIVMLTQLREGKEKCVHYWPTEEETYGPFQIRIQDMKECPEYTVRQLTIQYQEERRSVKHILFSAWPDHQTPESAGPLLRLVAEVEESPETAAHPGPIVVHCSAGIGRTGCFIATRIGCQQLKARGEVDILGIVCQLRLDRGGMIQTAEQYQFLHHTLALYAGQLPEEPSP

[5] = target: T2, Tyrosine-protein phosphatase non-receptor type 22; assay: SAR LYP1 Fluorescent Assay using OMFP substrate for In Vitro dose response studies - Set 2. [Related pubchem assays (depositor defined):AID1779, AID1784, AID2140, AID449726, AID488869]; format: functional
[6] = target: T2, Tyrosine-protein phosphatase non-receptor type 22; assay: SAR LYP1 Fluorescent Assay using OMFP substrate for In Vitro dose response studies - Set 3. [Related pubchem assays (depositor defined):AID1779, AID1784, AID2140, AID2686]; format: functional
[7] = target: Tyrosine-protein phosphatase non-receptor type 12 (Homo sapiens, UniProt Q05209); assay: SAR Selectivity Analysis of small molecule inhibitors of PEST using pCAP in a fluorescence assay. [Related pubchem assays (depositor defined):AID1779, AID1784, AID2135]; format: functional
Chain of Tyrosine-protein phosphatase non-receptor type 12 (Q05209 whole entry): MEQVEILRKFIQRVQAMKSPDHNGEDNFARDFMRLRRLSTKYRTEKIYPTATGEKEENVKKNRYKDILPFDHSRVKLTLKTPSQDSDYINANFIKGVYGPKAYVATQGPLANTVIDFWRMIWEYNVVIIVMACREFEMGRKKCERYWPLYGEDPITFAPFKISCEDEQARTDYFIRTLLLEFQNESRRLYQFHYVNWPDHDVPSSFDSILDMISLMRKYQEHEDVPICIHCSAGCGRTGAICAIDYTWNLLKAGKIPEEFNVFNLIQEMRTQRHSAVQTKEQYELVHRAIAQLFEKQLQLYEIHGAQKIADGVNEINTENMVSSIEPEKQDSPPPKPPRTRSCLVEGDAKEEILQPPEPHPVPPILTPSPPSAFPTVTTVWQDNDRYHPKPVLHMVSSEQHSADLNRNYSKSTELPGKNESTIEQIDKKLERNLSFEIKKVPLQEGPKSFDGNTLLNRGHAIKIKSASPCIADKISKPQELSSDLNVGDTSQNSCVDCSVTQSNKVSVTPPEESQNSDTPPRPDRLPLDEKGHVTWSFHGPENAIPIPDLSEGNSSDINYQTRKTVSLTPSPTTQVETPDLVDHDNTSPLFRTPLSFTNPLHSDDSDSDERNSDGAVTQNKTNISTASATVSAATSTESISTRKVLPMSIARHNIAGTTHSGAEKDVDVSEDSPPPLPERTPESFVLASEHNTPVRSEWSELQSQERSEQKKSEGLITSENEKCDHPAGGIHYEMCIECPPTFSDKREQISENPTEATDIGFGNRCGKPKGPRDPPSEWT

[8] = A cytotoxicity screen of small molecule inhibitors of the PhoP region in Salmonella typhi identified in the primary screen. [Related pubchem assays: 1850, 1864, 1985 ]; format: functional
Bcl-2-related protein A1 [9] = target: T4, Bcl-2-related protein A1 (Mus musculus, UniProt Q07440); assay: displacement of Bid BH3 peptide from Bfl-1 – biochemical, fluorescence polarization, FITC-Bid, mouse, primary screen (AID 432)
T4 sequence (Q07440 whole entry): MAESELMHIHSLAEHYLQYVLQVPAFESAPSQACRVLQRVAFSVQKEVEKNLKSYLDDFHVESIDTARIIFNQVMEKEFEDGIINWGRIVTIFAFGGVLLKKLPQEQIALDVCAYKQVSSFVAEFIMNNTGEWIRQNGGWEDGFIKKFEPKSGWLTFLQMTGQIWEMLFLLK

[10] = target: NACHT, LRR and PYD domains-containing protein 3 (Homo sapiens, UniProt Q96P20); assay: NALP3 inhibitors in yeast, dose response, luminescent (AID 488799); format: functional
Chain of NACHT, LRR and PYD domains-containing protein 3 (Q96P20 whole entry, the tested form may be a part): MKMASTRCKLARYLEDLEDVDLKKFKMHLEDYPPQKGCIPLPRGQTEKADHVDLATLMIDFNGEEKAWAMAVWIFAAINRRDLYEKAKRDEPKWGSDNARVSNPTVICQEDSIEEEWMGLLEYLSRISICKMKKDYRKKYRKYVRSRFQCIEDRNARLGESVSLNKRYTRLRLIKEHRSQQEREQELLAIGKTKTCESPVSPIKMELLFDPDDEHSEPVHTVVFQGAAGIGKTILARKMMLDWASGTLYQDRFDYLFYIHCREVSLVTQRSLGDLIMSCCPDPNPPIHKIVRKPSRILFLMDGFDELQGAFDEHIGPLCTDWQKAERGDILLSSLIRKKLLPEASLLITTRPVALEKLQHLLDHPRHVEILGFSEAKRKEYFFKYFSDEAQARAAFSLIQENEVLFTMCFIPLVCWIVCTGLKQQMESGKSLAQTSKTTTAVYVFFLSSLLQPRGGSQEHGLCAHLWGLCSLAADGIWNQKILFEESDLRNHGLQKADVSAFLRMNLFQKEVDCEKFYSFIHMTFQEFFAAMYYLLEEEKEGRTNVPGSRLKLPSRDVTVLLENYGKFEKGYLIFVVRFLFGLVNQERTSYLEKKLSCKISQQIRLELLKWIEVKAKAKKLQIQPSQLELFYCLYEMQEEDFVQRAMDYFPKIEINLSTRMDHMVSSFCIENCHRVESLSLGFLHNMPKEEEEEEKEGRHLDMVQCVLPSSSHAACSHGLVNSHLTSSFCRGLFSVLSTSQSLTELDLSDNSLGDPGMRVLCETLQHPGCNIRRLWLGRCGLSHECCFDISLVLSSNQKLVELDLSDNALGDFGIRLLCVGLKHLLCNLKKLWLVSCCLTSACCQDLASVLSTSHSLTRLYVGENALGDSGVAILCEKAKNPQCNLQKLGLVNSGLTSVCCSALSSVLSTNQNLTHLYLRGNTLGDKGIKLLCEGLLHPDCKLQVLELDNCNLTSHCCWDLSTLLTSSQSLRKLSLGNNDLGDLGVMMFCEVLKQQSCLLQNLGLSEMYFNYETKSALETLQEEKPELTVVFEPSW

Bcl-2-related protein A1 [11] = target: T4, Bcl-2-related protein A1; assay: small-molecule antagonists of Bfl-1/BH3 interaction – biochemical, TR-FRET, mouse Bfl-1, confirmation (AID 621);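 also: TR-FRET binding of GST-Bfl-1 to FITC-labelled Bid peptide via terbium antibody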
J774.A1 = assay: Confirmation of image-based Screening Assay for Inhibitors of Phagocytosis. [Related pubchem assays (depositor defined):AID1029, AID1643]; format: functional, cell-based; details: Mus musculus
Cytochrome P450 1A2 = target: T5, Cytochrome P450 1A2 (Homo sapiens, UniProt P05177);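 also: PubChem cytochrome P450 panel assay, CYP1A2 panel member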
T5 sequence (P05177 whole entry): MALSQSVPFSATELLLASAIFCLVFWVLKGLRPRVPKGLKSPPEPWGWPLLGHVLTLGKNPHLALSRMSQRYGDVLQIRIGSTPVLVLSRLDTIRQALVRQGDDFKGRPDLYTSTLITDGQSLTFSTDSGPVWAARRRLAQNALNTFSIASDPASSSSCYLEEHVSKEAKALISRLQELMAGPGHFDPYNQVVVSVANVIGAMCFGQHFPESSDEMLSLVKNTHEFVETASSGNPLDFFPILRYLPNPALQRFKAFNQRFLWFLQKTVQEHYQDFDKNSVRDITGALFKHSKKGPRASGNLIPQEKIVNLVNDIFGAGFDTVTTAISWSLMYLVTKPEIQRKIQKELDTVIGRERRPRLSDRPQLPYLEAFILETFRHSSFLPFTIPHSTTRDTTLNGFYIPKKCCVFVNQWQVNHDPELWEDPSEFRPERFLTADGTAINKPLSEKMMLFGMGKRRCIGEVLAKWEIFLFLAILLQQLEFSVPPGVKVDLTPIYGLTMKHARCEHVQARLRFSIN

Cytochrome P450 2C9 = Cytochrome P450 2C9 (Homo sapiens, UniProt P11712)
Chain of Cytochrome P450 2C9 (P11712 whole entry): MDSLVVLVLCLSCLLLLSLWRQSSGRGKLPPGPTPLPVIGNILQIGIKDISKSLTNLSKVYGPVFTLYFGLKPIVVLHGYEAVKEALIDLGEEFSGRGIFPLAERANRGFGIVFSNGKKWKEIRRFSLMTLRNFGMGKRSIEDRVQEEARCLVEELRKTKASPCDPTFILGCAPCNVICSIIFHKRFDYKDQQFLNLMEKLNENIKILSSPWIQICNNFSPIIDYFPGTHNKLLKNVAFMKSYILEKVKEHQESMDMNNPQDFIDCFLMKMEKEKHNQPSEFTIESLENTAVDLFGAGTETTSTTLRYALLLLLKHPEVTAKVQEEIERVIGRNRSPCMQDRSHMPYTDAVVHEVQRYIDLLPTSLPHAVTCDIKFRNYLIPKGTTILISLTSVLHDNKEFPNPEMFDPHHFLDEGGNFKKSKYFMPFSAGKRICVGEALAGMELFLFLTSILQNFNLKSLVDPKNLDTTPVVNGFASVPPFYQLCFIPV

Cytochrome P450 3A4 = Cytochrome P450 3A4 (Homo sapiens, UniProt P08684);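 also: CYP3A4 tested as one member of a cytochrome P450 panel screen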
Chain of Cytochrome P450 3A4 (P08684 whole entry): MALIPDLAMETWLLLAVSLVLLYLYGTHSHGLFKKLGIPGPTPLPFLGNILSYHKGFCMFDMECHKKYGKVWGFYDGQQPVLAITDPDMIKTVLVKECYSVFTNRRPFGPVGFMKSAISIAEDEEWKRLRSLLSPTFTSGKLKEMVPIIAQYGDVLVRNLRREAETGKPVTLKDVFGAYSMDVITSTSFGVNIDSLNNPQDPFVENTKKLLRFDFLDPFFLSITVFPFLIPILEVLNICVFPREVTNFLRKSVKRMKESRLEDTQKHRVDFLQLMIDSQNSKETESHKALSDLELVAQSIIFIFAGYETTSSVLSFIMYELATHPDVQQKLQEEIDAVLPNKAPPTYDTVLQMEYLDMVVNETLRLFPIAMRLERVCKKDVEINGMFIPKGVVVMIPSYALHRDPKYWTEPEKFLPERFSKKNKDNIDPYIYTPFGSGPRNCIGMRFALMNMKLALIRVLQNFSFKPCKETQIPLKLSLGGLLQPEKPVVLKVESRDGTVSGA

[12] = target: T6, Dual specificity protein phosphatase 3 (Homo sapiens, UniProt P51452); assay: SAR VHR1 Fluorescent Assay for In Vitro dose response studies Set 3. [Related pubchem assays (depositor defined):AID1654, AID1661, AID1878]; format: functional
T6 sequence (P51452 whole entry): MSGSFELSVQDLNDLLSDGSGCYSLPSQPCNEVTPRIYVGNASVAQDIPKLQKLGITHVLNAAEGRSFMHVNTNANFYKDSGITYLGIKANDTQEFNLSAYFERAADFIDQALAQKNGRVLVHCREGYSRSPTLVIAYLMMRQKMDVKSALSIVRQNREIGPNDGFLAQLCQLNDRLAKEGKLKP

[13] = target: T6, Dual specificity protein phosphatase 3; assay: Dose Response Confirmation of compounds that inhibit VHR1 in Fluorescent Assay. [Related pubchem assays (depositor defined):AID1661, AID1878]; format: functional
Cytochrome P450 2C19 = Cytochrome P450 2C19 (Homo sapiens, UniProt P33261); assay: Cytochrome panel assay with activity outcomes. Panel member name: p450-cyp2c19 Compounds with AC50 equal or less than 10 uM are considered active; format: functional; details: read-out: AC50
Chain of Cytochrome P450 2C19 (P33261 whole entry): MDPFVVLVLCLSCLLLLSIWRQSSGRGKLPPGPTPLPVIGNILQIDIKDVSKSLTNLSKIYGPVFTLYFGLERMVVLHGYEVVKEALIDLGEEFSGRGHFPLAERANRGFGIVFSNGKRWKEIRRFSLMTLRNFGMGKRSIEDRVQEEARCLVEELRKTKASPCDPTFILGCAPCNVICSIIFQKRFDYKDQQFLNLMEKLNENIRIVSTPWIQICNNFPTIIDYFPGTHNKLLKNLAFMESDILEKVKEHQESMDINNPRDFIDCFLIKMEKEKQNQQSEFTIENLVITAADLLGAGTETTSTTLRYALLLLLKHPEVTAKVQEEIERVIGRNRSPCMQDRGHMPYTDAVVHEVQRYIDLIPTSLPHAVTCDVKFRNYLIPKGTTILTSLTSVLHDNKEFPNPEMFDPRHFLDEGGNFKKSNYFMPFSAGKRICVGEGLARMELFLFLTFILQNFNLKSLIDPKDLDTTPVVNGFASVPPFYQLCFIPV

[14] = target: T3, Tyrosine-protein phosphatase non-receptor type 7; assay: Dose Response confirmation of compounds that inhibit HePTP. [Related pubchem assays (depositor defined):AID1059, AID1661, AID2085]; format: functional
[15] = Luminescence Cell-Based Dose Response to Identify Activators of 5'UTR Stem-Loop Driven Prion Protein mRNA Translation in H4-C Neuroglioblastoma Cells. [Related pubchem assays: 1829 (Project Summary), 1814 (Primary HTS)]; format: functional
[16] = Luminescence Cell-Based Dose Retest to Confirm Activators of 5'UTR Stem-Loop Driven Alpha-Synuclein mRNA Translation in H4 Neuroglioblastoma Cells. [Related pubchem assays (depositor defined):AID1813, AID1829]; format: functional
[17] = Luminescence Cell-Based Dose Response HTS to Identify Activators of 5'UTR Stem-Loop Driven Prion Protein mRNA Translation in H4-C Neuroglioblastoma Cells. [Related pubchem assays: 1829 (Project Summary), 1814 (Primary HTS)]; format: functional
H4 = assay: Luminescence Cell-Based Dose Response HTS to Identify Activators of 5'UTR Stem-Loop Driven Prion Protein mRNA Translation in H4 Neuroglioblastoma Cells. [Related pubchem assays: 1829 (Project Summary), 1814 (Primary HTS)]; format: functional; details: Homo sapiens
[18] = Luminescence Cell-Based Dose Response to Identify Activators of Luciferase Translation or Activity in H4-C Neuroglioblastoma Cells. [Related pubchem assays: 1829 (Project Summary), 1814 (Primary HTS)]; format: functional
[19] = Luminescence Cell-Based Dose Confirmation to Identify Activators of 5'UTR Stem-Loop Driven Alpha-Synuclein mRNA Translation in H4 Neuroglioblastoma Cells. [Related pubchem assays: 1829 (Project Summary), 1814 (Primary HTS)]; format: functional
[20] = Luminescence Cell-Based Dose Response HTS to Identify Activators of Luciferase Translation or Activity in H4 […] Cells. [Related pubchem assays: 1829 (Project Summary), 1814 (Primary HTS)]; format: functional
[21] = Luminescence Cell-Based Dose Confirmation HTS to Identify Activators of 5'UTR Stem-Loop Driven Alpha-Synuclein mRNA Translation in H4 Neuroglioblastoma Cells. [Related pubchem assays: 1829 (Project Summary), 1814 (Primary HTS)]; format: functional
[22] = Luminescence Cell-Based Dose Response HTS to Identify Activators of Luciferase Translation or Activity in H4-C Neuroglioblastoma Cells. [Related pubchem assays: 1829 (Project Summary), 1814 (Primary HTS)]; format: functional

Structure (SMILES): N#C/C(=C\c1ccc(OCc2ccc(Br)cc2)cc1)C(=O)Nc1cccc(C(=O)O)c1
- IC50 [1]: 1.83 µM (active)
- IC50 [2]: 3.5 µM (active)
- IC50 [3]: 3.37 µM (active)
- IC50 [4]: 0.343 µM (active)
- IC50 [5]: 1.94 µM (active)
- IC50 [6]: 0.925 µM (active)
- IC50 [7]: 0.714 µM (active)

Structure (SMILES): O=C(Nc1cccc(Br)c1)c1cc2ccccc2o1
- EC50 [8]: > 50 µM (active)
- IC50 (Bcl-2-related protein A1 [9]): > 100 µM (not active)
- IC50 [10]: 9.81 µM (active)
- IC50 (Bcl-2-related protein A1 [11]): > 100 µM (not active)

Structure (SMILES): COc1ccccc1-c1nnc2sc(-c3cc4ccccc4o3)nn12
- IC50 (J774.A1): > 25 µM (inactive)

Structure (SMILES): Cc1ccc(-c2nc3ccccc3s2)cc1NC(=O)c1cc(-n2cnnc2)ccc1Cl
- AC50 (Cytochrome P450 1A2): 2.24 µM (inconclusive)
- AC50 (Cytochrome P450 2C9): 2.51 µM (inconclusive)
- AC50 (Cytochrome P450 3A4): 0.891 µM (inconclusive)
- IC50 [12]: 3.69 µM (active)
- IC50 [13]: 2.21 µM (active)
- AC50 (Cytochrome P450 2C19): 0.794 µM (inconclusive)
- IC50 [14]: 4.69 µM (active)

Structure (SMILES): C=CCc1ccc(OCCn2nnc3ccccc32)c(OC)c1
- EC50 [15]: 1.49 µM (active)
- EC50 [16]: > 195 µM (inactive)
- EC50 [17]: > 195 µM (not active)
- EC50 (H4): 8.33 µM (active)
- EC50 [18]: 3.71 µM (active)
- EC50 [19]: > 12 µM (not active)
- EC50 [20]: 4.24 µM (active)
- EC50 [21]: < 0.1 µM (active)
- EC50 [22]: 0.772 µM (active)
